Test results published in patent US7723301B2, “Pharmaceutical compositions comprising an anti-teratogenic compound and applications of the same” (The Board of Trustees of the University of Arkansas, priority 2007, dated 2010).

Assays:
β-catenin [1] = assay: Sub-cellular localization of β-catenin in HEFs; format: cell-based, human; conditions: in the presence of Wnt3a; about 70% with Wnt3a alone
Experimental: (§1) CEFs or HEFs attached on cover slips were incubated with Wnt3a-conditioned medium including thalidomide or solvent or with control medium for five hours. β-catenin was detected by using a mouse anti-β-catenin antibody (1:500, BD Transduction Laboratories), an anti-mouse Cy3-coupled secondary antibody (Dianova) and fluorescence microscopy. Afterwards, a DAPI staining was performed as a control. Quantification was done by counting the nuclei with a clear fluorescent signal in relation to the number of DAPI-stained nuclei.

β-catenin [2] = assay: Sub-cellular localization of β-catenin in CEFs; format: cell-based, chicken; conditions: in the presence of Wnt3a, data not shown
Experimental: as §1

[3] = system: Bmp4 and Dkk1 expression in MEFs; assay: sqRT-PCR of Bmp4 and Dkk1 expression in MEFs; format: cell-based, mouse; conditions: 10 μg/ml, six hours
Experimental: (§2) Primary limb bud cells (PLBCs) were isolated from 60 pooled wing and hindlimb buds of HH stages 23/24 embryos. Fibroblasts were gained from HH stage 34 chicken embryos or from 13.5 d.p.c. mouse embryos. Human embryonic fibroblasts were provided by Matthias Maass (2). Before adding reagents, all cell types were cultured for 16 hours in D-MEM (Gibco) plus 10% fetal calf serum (FCS) and 2% chicken serum. Treatment with thalidomide, phthalimide, recombinant human (rh) BMP4 (300 ng/ml; R&D Systems), juglone (5 μM; Sigma), recombinant mouse Noggin (30, 300, 1000 ng/ml in FIG. 4B; 300 ng/ml in FIGS. 4C and 6A), anti-human-DKK1 antibody (35, 350 and 1000 ng/ml in FIG. 4B; 350 ng/ml in FIGS. 4C and 6A), LiCl (3, 30, 60 mM in FIG. 4B; 30 mM in FIGS. 4C, 6A and 6C) and/or (2Z,3E)-6-Bromoindirubin-3-oxime (BIO, Gsk3-Inhibitor IX; 50, 500, 1000 nM in FIG. 4B; 500 nM in FIG. 6A; 50 and 500 nM in FIG. 6C; Calbiochem) were performed in Optimem1 (Invitrogen) plus 1% FCS. Unless otherwise noted, all treatments with thalidomide and rh-BMP4 and associated controls were done for six hours. […]
RNA isolation, semi-quantitative RT-PCRs and whole mount in situ hybridizations were performed according to standard protocols that are well known within the art. […] Quantifications were performed using NIH Image 1.62.

[4] = system: primary limb bud cells (PLBCs); assay: Cell death by trypan blue staining in PLBCs; format: cell-based, chicken
Experimental: (§3) Primary limb bud cells (PLBCs) were isolated from 60 pooled wing and hindlimb buds of HH stages 23/24 embryos. Fibroblasts were gained from HH stage 34 chicken embryos or from 13.5 d.p.c. mouse embryos. Human embryonic fibroblasts were provided by Matthias Maass (2). Before adding reagents, all cell types were cultured for 16 hours in D-MEM (Gibco) plus 10% fetal calf serum (FCS) and 2% chicken serum. Treatment with thalidomide, phthalimide, recombinant human (rh) BMP4 (300 ng/ml; R&D Systems), juglone (5 μM; Sigma), recombinant mouse Noggin (30, 300, 1000 ng/ml in FIG. 4B; 300 ng/ml in FIGS. 4C and 6A), anti-human-DKK1 antibody (35, 350 and 1000 ng/ml in FIG. 4B; 350 ng/ml in FIGS. 4C and 6A), LiCl (3, 30, 60 mM in FIG. 4B; 30 mM in FIGS. 4C, 6A and 6C) and/or (2Z,3E)-6-Bromoindirubin-3-oxime (BIO, Gsk3-Inhibitor IX; 50, 500, 1000 nM in FIG. 4B; 500 nM in FIG. 6A; 50 and 500 nM in FIG. 6C; Calbiochem) were performed in Optimem1 (Invitrogen) plus 1% FCS. Unless otherwise noted, all treatments with thalidomide and rh-BMP4 and associated controls were done for six hours. Inhibitors were applied once at the beginning of incubation with the exception of LiCl that was added 150 minutes before harvesting the cells for further analyses. Pre-treatment with phenyl-N-t-butylnitrone (PBN; 2 mM; Sigma) was performed for one hour. Incubations with juglone were performed for two hours, if applicable, after a pre-treatment with PBN, Noggin, anti-Dkk1 antibody, LiCl or Gsk3-Inhibitor IX for one hour.
(§4) Cell death in PLBCs, CEFs, MEFs and HEFs was detected by staining with trypan blue (0.1% (w/v) in PBS; Sigma) for 90 seconds. Cells were counted in a counting chamber to determine the ratio of dead to live cells.

[5] = system: primary embryonic fibroblasts of mice (MEFs); assay: Cell death by trypan blue staining in MEFs; format: cell-based, mouse
Experimental: as §2, §4

[6] = system: Dkk1 and Bmp expression in limb buds; assay: sqRT-PCR and whole mount in situ hybridization of Dkk1 and Bmp expression in limb buds; format: in vivo, chicken
Experimental: (§5) RNA isolation, semi-quantitative RT-PCRs and whole mount in situ hybridizations were performed according to standard protocols that are well known within the art. RNA was isolated using TRIZOL (Gibco BRL) followed by DNAseI digestion. First strand synthesis was carried out with the Expand RT System (Roche) according to the manufacturer's instructions. PCR amplification was carried out primers and conditions within the knowledge of a person having skill in the relevant art. Quantifications were performed using NIH Image 1.62.

[7] = system: human embryonic fibroblasts (HEFs); assay: Cell death by trypan blue staining in HEFs; format: cell-based
Experimental: as §3, §4

[8] = system: Bmp4 and Dkk1 expression in PLBCs; assay: sqRT-PCR of Bmp4 and Dkk1 expression in PLBCs; format: cell-based, chicken; conditions: 10 μg/ml, six hours
Experimental: as §3, §5

Wnt/β-catenin signaling = assay: TOPflash luciferase reporter assay in CEFs; format: cell-based, chicken; conditions: Wnt3a-conditioned medium, 24 hours
Experimental: Plasmids with wild type (TOPflash) or mutated (FOPflash) LEF/TCF binding sites (5) upstream of a luciferase reporter gene were transiently transfected into CEFs using Lipofectamine (Invitrogen). Following transfection for 24 hours, the cells were exposed to Wnt3a-conditioned medium or to control medium (6) with or without thalidomide or recombinant human DKK1 (150 ng/ml, R&D Biosystems) for 24 hours prior to luciferase assay. Values were normalized for transfection efficiency by co-transfection with a pSV-β-galactosidase vector and for the number of living cells. Luciferase activity was measured using the Dual-Light System (Applied Biosystems).

chicken embryos = assay: Inhibitors counteracting thalidomide-induced limb truncations and microphthalmia in chicken embryos; format: in vivo
Experimental: Fertilized eggs were purchased from Deindl GmbH, Rietberg-Varensell. They were incubated at 38° C. in a humidified incubator, windowed after one day and staged according to Hamburger and Hamilton (HH stage). Racemic thalidomide (Celgene), thalidomide enantiomers or phthalimide (Sigma) were dissolved in DMSO at 5 mg/ml and further diluted in PBS. Embryos were exposed to drugs by dropping 15 μg-3 mg thalidomide or phthalimide per kg egg weight (about 1-200 μg per embryo) in 50 μl DMSO/PBS as a single dose at HH stages 0-13 onto the embryo. Thalidomide (50 μg) or phthalimide (50 μg) in 10 μl DMSO was injected into the extra-embryonic blood vessels of HH 19 stage embryos. LiCl (99% pure, Sigma) was dissolved in sterile PBS. LiCl (0.1, 0.6 or 3.2 mg) was applied at HH stages 17-19 by dropping 500 μl of a 5 mM, 28 mM or 151 mM LiCl solution onto the embryo. Recombinant Noggin, Dkk1 specific goat IgG (R&D Systems) or serum of non-immunized goats (Sigma) was dissolved in 0.1% BSA/0.01% Fast Green/PBS. Noggin (10 or 100 ng), Dkk1 specific goat IgG (5 or 50 ng) or serum of non-immunized goats (50 ng) was applied to a single embryo at HH stages 17-19 by injecting a 10 μl solution through the extra-embryonic membranes.
The morphology of the limbs was studied in specimens fixed in 5% trichloroacetic acid and stained for cartilage with alcian green as described (3).

[9] = system: limb buds of HH stages 23/24 chicken embryos; assay: Whole mount TUNEL staining of limb buds; format: in vivo
Experimental: TUNEL staining was performed as described (7).

O=C1CCC(N2C(=O)c3ccccc3C2=O)C(=O)N1 (racemic) [thalidomide, 2-(2,6-dioxo-3-piperidyl)isoindole-1,3-dione]
HEFs positive for nuclear β-catenin (β-catenin [1]): 10% | number of CEFs positive for nuclear β-catenin (β-catenin [2]): dramatic reduction | expression of Bmp4 and Dkk1 in MEFs [3]: not in MEFs | maximum of cell death in PLBCs ([4]; 38.7 μM (10 μg/ml), six to eight hours): about 6 -fold above control | EC50 ([4]; Gallus gallus, 6 h, treated for six hours, read-out: EC50 for induction of PCD in PLBCs): 5 µM | induction of cell death in MEFs ([5]; 38.7 μM (10 μg/ml), six hours): did not induce cell death | induction of cell death in MEFs with longer incubation times and concentrations up to 100 μg/ml ([5]; up to 100 μg/ml, data not shown): did not significantly induce cell death above controls | expression level of Bmp2 in limb buds (sqRT-PCR) ([6]; HH stages 23/24 embryos): not significantly affected | expression of Bmp4, Bmp5 and Bmp7 in limb buds (sqRT-PCR) ([6]; HH stages 23/24 embryos): clearly up-regulated | Dkk1 expression in limb buds (sqRT-PCR) ([6]; HH stages 23/24 embryos, in comparison to controls): dramatically enhanced | limb buds with Bmp4 expression dramatically up-regulated (whole mount in situ hybridization) ([6]; HH stages 23/24 embryos, AER, ANZ and PNZ): 20 of 36 | limb buds with Dkk1 expression clearly enhanced (whole mount in situ hybridization) ([6]; HH stages 23/24 embryos, AER, underlying mesenchyme and ANZ): 19 of 64 | limb buds with enhanced Bmp expression and PCD ([6]; in vivo): 55% | limb buds with increased Dkk1 expression ([6]; in vivo): 30% | potential to induce PCD in HEFs [7]: very similar to that in chicken embryonic cells | EC50 ([7]; Homo sapiens, Fibroblast, 6 h, treated for six hours, read-out: EC50 for induction of apoptosis (PCD) in HEFs): 8.9 µM | expression of Bmp4 and Dkk1 in PLBCs [8]: induced the expression | effect on Wnt3a-induced TOPflash activity (Wnt/β-catenin signaling): clearly counteracted | embryos with limb truncations, thalidomide-treated control embryos (chicken embryos; control of the anti-Dkk1 antibody experiment (FIG. 7B)): 15% | embryos with microphthalmia, thalidomide-treated control embryos (chicken embryos; in vivo): 23% | embryos with limb truncations, thalidomide treatment (chicken embryos; survived to day seven (FIG. 7A)): 19% | limb buds with enlarged ANZ (whole mount TUNEL staining) ([9]; HH stages 23/24 embryos): 22 of 40 | individual limb buds with enhanced PCD (TUNEL) ([9]; chicken, in vivo): 53%
